In patent US12552767B2, “3-heteroaryl pyrrolidine and piperidine orexin receptor agonists” (Merck Sharp & Dohme LLC, priority 2020, dated 2026):

Target: T1, human OX2R (Homo sapiens, UniProt O43614)
T1 construct: expressed in transfected cells; host or cells: CHO (Chinese hamster ovary) cells, grown under G418 selection
T1 sequence (O43614 1-444): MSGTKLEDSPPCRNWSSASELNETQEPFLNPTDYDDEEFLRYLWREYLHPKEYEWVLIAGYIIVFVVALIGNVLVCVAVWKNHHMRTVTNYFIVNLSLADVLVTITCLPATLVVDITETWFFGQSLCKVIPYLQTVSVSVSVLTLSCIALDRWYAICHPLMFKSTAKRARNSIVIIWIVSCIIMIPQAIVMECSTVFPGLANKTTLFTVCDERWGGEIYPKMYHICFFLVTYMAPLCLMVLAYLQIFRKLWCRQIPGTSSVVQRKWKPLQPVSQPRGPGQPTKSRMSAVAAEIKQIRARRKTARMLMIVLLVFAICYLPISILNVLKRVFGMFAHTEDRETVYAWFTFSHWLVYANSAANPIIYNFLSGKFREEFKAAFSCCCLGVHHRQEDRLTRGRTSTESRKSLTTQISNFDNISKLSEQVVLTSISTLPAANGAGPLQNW
Assay: IP-One (IPOne) orexin receptor agonist assay in CHO cells expressing human OX2R
Type: cell-based
Details: for EC50: CHO cells expressing human OX2R, IP-One IP-1 detection, 2 hours incubation, four parameter logistic fit, read-out: OX2R Potency, EC50; for % of reference agonist maximal effect: human OX2R, percentage of sample raw value/mean max effect (reference compound at 1 uM with 100% activity)
Text: The utility of the compounds in accordance with the present invention as orexin receptor OX1R and/or OX2R agonists may be readily determined without undue experimentation by methodology well known in the art. Both the OX1R and/or OX2R G-coupled protein receptors (GPCRs) couple through the Gαq signaling pathway, which ultimately promotes calcium mobilization via inositol triphosphate (IP3) production. The half-life of IP-3 is relatively short, being rapidly metabolized to inositol monophosphate (IP-1), which can be readily detected using a commercially available assay kit (IP-One; Cisbio; cat #621PAPEC) coupled with a cell line expressing the target receptor(s) of interest. The utility of the compounds in accordance with the present invention as orexin receptor OX1R and/or OX2R agonists may be determined utilizing this assay.
In a typical experiment, the OX1 and OX2 receptor agonist activity is determined in accordance with the following general experimental method. Chinese hamster ovary (CHO) cells expressing human OX1R and/or the human OX2R were grown in Iscove's modified DMEM containing glutaMAX™, 1% G418, 100 U/mL penicillin, 100 μg/mL streptomycin and 10% heat-inactivated qualified fetal bovine serum (FBS). The OX2R cells were seeded at 10,000 cells/well/50 μL and the OX1R cells were seeded at 20,000 cells/well/50 μL into 384-well white tissue culture plates (Greiner; cat #781080). All cell/media reagents were from GIBCO-Invitrogen Corp. The seeded cell plate(s) were incubated at 37° C. with 5% CO2 and 85% humidity for 20-24 hours. On the day of the assay, assay-ready compound plates were prepared using an acoustic liquid handler (ECHO; Labcyte), which dispensed sufficient volume of test compound stock (10 mM in DMSO) or 100% DMSO to prepare 10 point, ½-log dilutions in a final volume of 202.5 nL/well in all test wells of a 384-well diamond plate (Labcyte). Following completion of assay-ready plates, importantly, the next three steps were performed with minimal delay: 1) 20 μl of 1× stimulation buffer was added to the compound plate using a Multidrop Combi (small cassette, Thermo Fisher Scientific cat #24073290); 2) culture medium was removed from the cell plate using the Bluewasher plate washer (gentle spin; BlueCatBio); 3) 14 μl of compound/stimulation buffer mixture was added to the cell plate using a Bravo liquid handler (Agilent) prior to incubating cell plates at 37° C. with 5% CO2 and 85% humidity for 1 or 2 hours (OX1R and OX2R, respectively). During this incubation, IP-one detection reagents were prepared (38:1:1 lysis buffer:D2:AB-cryptate reagents). Six μL of mixed detection reagents were added to the cell plate using a Multidrop Combi (small cassette, Thermo Fisher Scientific cat #24073290) and incubated 60 minutes at room temperature in the dark. Fluorescence signal was detected using an Envision plate reader (Perkin Elmer) [LANCE/DELFIA Dual Enh (Em: APC 665; Ex: Cy5 620)].
For each compound, data were fit to a four parameter logistic fit (ActivityBase software) and the EC50 was reported as the inflection point of the resulting curve. Percent effect for each test compound was determined as the percentage of sample raw value/mean max effect, where the mean max effect was derived from the mean raw value of 32 control wells per assay plate (using Orexin A (cat #003-30) at 1 μM for human OX1R and a reference compound at 1 uM with 100% activity previously established by comparison to Orexin A for human OX2R). The intrinsic orexin receptor agonist activity of a compound which may be used in the present invention may be determined by these assays.

EC50 [µM] | % of reference agonist maximal effect [%] | SMILES
0.682 | 97.4 | O=C(C1CC1)N1CCC[C@H](c2cc[nH]n2)[C@@H]1CO[C@H]1CC[C@@H](c2ccccc2)CC1 (single isomer, unassigned) [Example 20, cyclopropyl((CIS)-2-((((CIS)-4-phenylcyclohexyl)oxy)methyl)-3-(1H-pyrazol-3-yl)piperidin-1-yl)methanone]
5.22 | 28.5 | CC(C)[C@H]1CC[C@@H](OC[C@H]2[C@@H](c3cc[nH]n3)CCCN2C(=O)OCc2ccccc2Cl)CC1 (relative stereo) [Example 93, 2-chlorobenzyl (CIS)-2-((((CIS)-4-isopropylcyclohexyl)oxy)methyl)-3-(1H-pyrazol-3-yl)piperidine-1-carboxylate]
> 10 | 5.2 | COC(=O)N1CCC[C@@H](c2n[nH]cc2C(C)C)[C@H]1CO[C@H]1CC[C@@H](c2ccccc2)CC1 (single isomer, unassigned) [Example 50]
0.348 | 100.4 | Cc1cn[nH]c1[C@H]1CCCN(C(=O)OCC(F)F)[C@H]1CO[C@H]1CC[C@@H](c2ccccc2)CC1 (relative stereo) [Example 24, 2,2-difluoroethyl (CIS)-3-(4-methyl-1H-pyrazol-5-yl)-2-((((CIS)-4-phenylcyclohexyl)oxy)methyl)piperidine-1-carboxylate]
0.163 | 100.4 | CCc1c[nH]nc1[C@H]1CCCN(C(=O)OC)[C@H]1CO[C@H]1CC[C@@H](c2ccccc2)CC1 (single isomer, unassigned) [Example 43]
6.78 | 80.5 | COC(=O)CCOC(=O)N1CCC[C@H](c2cc[nH]n2)[C@@H]1CO[C@H]1CC[C@@H](c2ccccc2)CC1 (relative stereo) [Example 114, 3-methoxy-3-oxopropyl (CIS)-2-((((CIS)-4-phenylcyclohexyl)oxy)methyl)-3-(1H-pyrazol-3-yl)piperidine-1-carboxylate]
0.0278 | 100.1 | CCNC(=O)N1CCC[C@H](c2cc[nH]n2)[C@@H]1CO[C@H]1CC[C@@H](c2ccccc2)CC1 [Example 17, (2R,3S)-N-ethyl-2-((((CIS)-4-phenylcyclohexyl)oxy)methyl)-3-(1H-pyrazol-3-yl)piperidine-1-carboxamide]
4.38 | 72 | O=C(NC1COC1)N1CCC[C@H](c2cc[nH]n2)[C@@H]1CO[C@H]1CC[C@@H](c2ccccc2)CC1 (relative stereo) [Example 127, (CIS)-N-(oxetan-3-yl)-2-((((CIS)-4-phenylcyclohexyl)oxy)methyl)-3-(1H-pyrazol-3-yl)piperidine-1-carboxamide]
2.36 | 95.4 | COC(=O)N1C[C@H](C)C[C@H](c2ccn[nH]2)[C@@H]1CO[C@H]1CC[C@@H](c2ccccc2)CC1 (racemic) [Example 41, (+/−) methyl (2R,3S,5R)-5-methyl-2-((((CIS)-4-phenylcyclohexyl)oxy)methyl)-3-(1H-pyrazol-5-yl)piperidine-1-carboxylate]
1.63 | 95.8 | COC(=O)N1C[C@@H](C)C[C@@H](c2ccn[nH]2)[C@@H]1CO[C@H]1CC[C@@H](c2ccccc2)CC1 (racemic) [Example 40, (+/−) methyl (2R,3R,5S)-5-methyl-2-((((CIS)-4-phenylcyclohexyl)oxy)methyl)-3-(1H-pyrazol-5-yl)piperidine-1-carboxylate]
1.5 | 95.7 | COC(=O)N1CCC[C@H](c2n[nH]cc2C)[C@@H]1COC1CCN(c2ncc(F)cn2)CC1 (relative stereo) [Example 7, methyl (CIS)-2-(((1-(5-fluoropyrimidin-2-yl)piperidin-4-yl)oxy)methyl)-3-(4-methyl-1H-pyrazol-3-yl)piperidine-1-carboxylate]
5.56 | 78.6 | Cc1cnc(COC(=O)N2CCC[C@H](c3cc[nH]n3)[C@@H]2CO[C@H]2CC[C@@H](c3ccccc3)CC2)o1 (relative stereo) [Example 109, (5-methyloxazol-2-yl)methyl (CIS)-2-((((CIS)-4-phenylcyclohexyl)oxy)methyl)-3-(1H-pyrazol-3-yl)piperidine-1-carboxylate]
0.25 | 100.7 | Cc1c[nH]nc1[C@H]1CCCN(C(=O)OC(C)C)[C@H]1COC1CCN(c2ncccn2)CC1 (relative stereo) [Example 9, Isopropyl (CIS)-3-(4-methyl-1H-pyrazol-3-yl)-2-(((1-(pyrimidin-2-yl)piperidin-4-yl)oxy)methyl)piperidine-1-carboxylate]
6 | 83.7 | CCNC(=O)N1CCC[C@H](c2ccnn2C)[C@@H]1CO[C@H]1CC[C@@H](c2ccccc2)CC1 (relative stereo) [Example 22, (CIS)-N-ethyl-3-(1-methyl-1H-pyrazol-5-yl)-2-((((CIS)-4-phenylcyclohexyl)oxy)methyl)piperidine-1-carboxamide]
5.94 | 69.6 | CC[C@@H](C)NC(=O)N1CCC[C@H](c2cc[nH]n2)[C@@H]1CO[C@H]1CC[C@@H](c2ccccc2)CC1 [Example 128, (CIS)-N-((R)-sec-butyl)-2-((((CIS)-4-phenylcyclohexyl)oxy)methyl)-3-(1H-pyrazol-3-yl)piperidine-1-carboxamide]
5.08 | 71.4 | CC#CCCOC(=O)N1CCC[C@H](c2cc[nH]n2)[C@@H]1CO[C@H]1CC[C@@H](c2ccccc2)CC1 (relative stereo) [Example 106, pent-3-yn-1-yl (CIS)-2-((((CIS)-4-phenylcyclohexyl)oxy)methyl)-3-(1H-pyrazol-3-yl)piperidine-1-carboxylate]
6.73 | 87.9 | CC(C)[C@H]1CC[C@@H](OC[C@H]2[C@@H](c3cc[nH]n3)CCCN2C(=O)NCC2CCCCC2)CC1 (relative stereo) [Example 123, (CIS)-N-(cyclohexylmethyl)-2-((((CIS)-4-isopropylcyclohexyl)oxy)methyl)-3-(1H-pyrazol-3-yl)piperidine-1-carboxamide]
6.67 | 57.4 | O=C(OC(CF)CF)N1CCC[C@H](c2cc[nH]n2)[C@@H]1CO[C@H]1CC[C@@H](c2ccccc2)CC1 (relative stereo) [Example 113, 1,3-difluoropropan-2-yl (CIS)-2-((((CIS)-4-phenylcyclohexyl)oxy)methyl)-3-(1H-pyrazol-3-yl)piperidine-1-carboxylate]
> 10 | 0 | COC(=O)N1CCC[C@@H](c2n[nH]cc2C#N)[C@H]1CO[C@H]1CC[C@@H](c2ccccc2)CC1 (single isomer, unassigned) [Example 52]
